These results are taken from patent US12172983B2, “EGFR inhibitors” (Blueprint Medicines Corporation, priority 2019, dated 2024).

Assay [1] relates to phosphorylation of EGFR (Tyr1068) in NCI-H1975 cell line that harbors the EGFR L858R T790M mutations. As to the kind of experiment: NCI-H1975 pEGFR AlphaLISA assay. Particulars: 4-5 hours incubation, read-out: Ext pEGFR H1975. The assay is classed as cell-based. The method in brief:
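NCI-H1975 cells (EGFR L858R/T790M) seeded overnight, then treated with compound for 4-5 h at 37 °C/5% CO2. After lysis, p-EGFR (Tyr1068) quantified by AlphaLISA SureFire Ultra with acceptor then donor beads; IC50 fitted from percent inhibition versus log concentration.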

The target in another assay is T1, EGFR (L858R T790M C797S) (Homo sapiens, UniProt P00533, C797S/L858R/T790M).
T1 construct: purchased SignalChem E10-122VG
As to the kind of experiment: Biochemical EGFR inhibition assay (Caliper mobility shift), EGFR LRTMCS mutant. Particulars: inhibitory activity against EGFR LRTMCS mutant; apparent IC50; read-out: Ext Enz LRTMCS. A digest of the protocol: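 Each enzyme was allowed to phosphorylate 10–20% of its peptide at 25° C. before EDTA (35 mM) quench. Separated substrate and product peaks were measured by mobility shift, giving apparent IC50 values.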

The mark [2] stands for this setting: Homo sapiens, NCI-H1975, inhibition of phosphorylation of mutant EGFR in NCI-H1975 cells.
The mark [3] stands for this setting: inhibition of phosphorylation of mutant EGFR in NCI-H1975 cells.

pIC50: −log10 of the molar value. Like-named read-outs stand apart in the source and are kept apart here.

With `CC(C)c1ccc(N2CC(CS(C)(=O)=O)C2)c2cnc(Nc3ccnc(N4CC[C@@H](F)[C@H](O)C4)n3)cc12` (single isomer, unassigned) [Compound 24, (3S,4S)-4-fluoro-1-[4-({8-[3-(methanesulfonylmethyl)azetidin-1-yl]-5-(propan-2-yl)isoquinolin-3-yl}amino)pyrimidin-2-yl]piperidin-3-ol or (3R,4R)-4-fluoro-1-[4-({8-[3-(methanesulfonylmethyl)azetidin-1-yl]-5-(propan-2-yl)isoquinolin-3-yl}amino)pyrimidin-2-yl]piperidin-3-ol], the pIC50 was 7.52 to 7.70 in assay [1] (setting [2]) and no less than 7.82 on EGFR (L858R T790M C797S).
On the same counts, the results for `CCOc1ccc(N2CC(CS(C)(=O)=O)C2)c2cnc(Nc3ccnc(N4CC[C@@H](O)[C@@](C)(F)C4)n3)cc12` (single isomer, unassigned) [Compound 78] are 7.52 to 7.70 and no less than 7.82.
As to `[2H]C([2H])([2H])OC1CCN(c2nccc(Nc3cc4c(C(C)C)ccc(N5C[C@H](CS(C)(=O)=O)[C@H]5C)c4cn3)n2)CC1` [Compound 263, 8-[(2R,3S)-3-(methanesulfonylmethyl)-2-methylazetidin-1-yl]-N-{2-[4-(^2H3)methoxypiperidin-1-yl]pyrimidin-4-yl}-5-(propan-2-yl)isoquinolin-3-amine], the figures for the pIC50 (in assay [1] (setting [2]); at EGFR (L858R T790M C797S)) were 7.70 to 8.00 and 7.70 to 7.82, respectively.
Take `CO[C@@H]1[C@H](O)CN(c2nccc(Nc3cc4c(C(C)C)cnc(N5C[C@H](CS(C)(=O)=O)[C@H]5C)c4cn3)n2)CC1(F)F` (single isomer, unassigned) [Compound 236, (3S,4S)-5,5-difluoro-1-[4-({8-[(2R,3S)-3-(methanesulfonylmethyl)-2-methylazetidin-1-yl]-5-(propan-2-yl)-2,7-naphthyridin-3-yl}amino)pyrimidin-2-yl]-4-methoxypiperidin-3-ol or (3R,4R)-5,5-difluoro-1-[4-({8-[(2R,3S)-3-(methanesulfonylmethyl)-2-methylazetidin-1-yl]-5-(propan-2-yl)-2,7-naphthyridin-3-yl}amino)pyrimidin-2-yl]-4-methoxypiperidin-3-ol]: the pIC50 in assay [1] (setting [3]) is 7.70 to 8.00; at EGFR (L858R T790M C797S), no less than 7.82.
With `COc1ccc(N2CC(CS(C)(=O)=O)C2)c2cnc(Nc3ccnc(N4C[C@@H](F)[C@@H](O)C(C)(C)C4)n3)cc12` (single isomer, unassigned) [Compound 79, (4S,5R)-5-fluoro-1-[4-({8-[3-(methanesulfonylmethyl)azetidin-1-yl]-5-methoxyisoquinolin-3-yl}amino)pyrimidin-2-yl]-3,3-dimethylpiperidin-4-ol or (4R,5S)-5-fluoro-1-[4-({8-[3-(methanesulfonylmethyl)azetidin-1-yl]-5-methoxyisoquinolin-3-yl}amino)pyrimidin-2-yl]-3,3-dimethylpiperidin-4-ol], the pIC50 is 7.70 to 8.00 in assay [1] (setting [2]) and no less than 7.82 at EGFR (L858R T790M C797S).
In the case of `CC(C)c1ccc(N2CC(CS(C)(=O)=O)C2)c2cnc(Nc3ccnc(N4CC[C@H](O)[C@H](C)C4)n3)cc12` (single isomer, unassigned) [Compound 19, (3S,4R)-1-[4-({8-[3-(methanesulfonylmethyl)azetidin-1-yl]-5-(propan-2-yl)isoquinolin-3-yl}amino)pyrimidin-2-yl]-3-methylpiperidin-4-ol or (3R,4S)-1-[4-({8-1,3-(methanesulfonylmethyl)azetidin-1-yl]-5-(propan-2-yl)isoquinolin-3-yl}amino)pyrimidin-2-yl]-3-methylpiperidin-4-ol], the pIC50 in assay [1] (setting [3]) was 7.70 to 8.00; at EGFR (L858R T790M C797S), 7.70 to 7.82.
The like results for `CC(C)c1ccc(N2C[C@H](CS(C)(=O)=O)[C@H]2C)c2cnc(Nc3ccnc(N4CC[C@](F)(CO)C4)n3)cc12` (single isomer, unassigned) [Compound 271, [(3S)-3-fluoro-1-[4-({8-[(2R,3S)-3-(methanesulfonylmethyl)-2-methylazetidin-1-yl]-5-(propan-2-yl)isoquinolin-3-yl}amino)pyrimidin-2-yl]pyrrolidin-3-yl]methanol or [(3R)-3-fluoro-1-[4-({8-[(2R,3S)-3-(methanesulfonylmethyl)-2-methylazetidin-1-yl]-5-(propan-2-yl)isoquinolin-3-yl}amino)pyrimidin-2-yl]pyrrolidin-3-yl]methanol] were, in that order, no less than 8.00 and no less than 7.82.
For the compound `CC(C)c1ccc(N2CC(CS(C)(=O)=O)C2)c2cnc(Nc3ccnc(N4CC5CCC(C4)O5)n3)cc12` [Compound 12, 8-[3-(methanesulfonylmethyl)azetidin-1-yl]-N-(2-{8-oxa-3-azabicyclo[3.2.1]octan-3-yl}pyrimidin-4-yl)-5-(propan-2-yl)isoquinolin-3-amine], the figures for the pIC50 (in assay [1] (setting [2]); at EGFR (L858R T790M C797S)) were 7.30 to 7.52 and no less than 7.82, respectively.
Consider “(R)-ethyl({1-[3-({2-[(3S,4R)-3-fluoro-4-methoxypiperidin-1-yl]pyrimidin-4-yl}amino)-5-(propan-2-yl)isoquinolin-8-yl]azetidin-3-yl}methyl)imino-λ^6-sulfanone or (S)-ethyl({1-[3-({2-[(3S,4R)-3-fluoro-4-methoxypiperidin-1-yl]pyrimidin-4-yl}amino)-5-(propan-2-yl)isoquinolin-8-yl]azetidin-3-yl}methyl)imino-λ^6-sulfanone [Compound 272]”, for which the pIC50 in assay [1] (setting [3]) is no less than 8.00; on EGFR (L858R T790M C797S) it was no less than 7.82.
For the compound `[2H]C([2H])([2H])O[C@H]1[C@@H](O)CN(c2nccc(Nc3cc4c(C(C)C)ccc(N5C[C@H](CS(C)(=O)=O)[C@H]5C)c4cn3)n2)CC1(F)F` (single isomer, unassigned) [Compound 313, (3S,4S)-5,5-difluoro-1-(4-((5-isopropyl-8-((2R,3S)-2-methyl-3-((methylsulfonyl)methyl)azetidin-1-yl)isoquinolin-3-yl)amino)pyrimidin-2-yl)-4-(^2H3)methoxypiperidin-3-ol or (3R,4R)-5,5-difluoro-1-(4-((5-isopropyl-8-((2R,3S)-2-methyl-3-((methylsulfonyl)methyl)azetidin-1-yl)isoquinolin-3-yl)amino)pyrimidin-2-yl)-4-(^2H3)methoxypiperidin-3-ol], the figures for the pIC50 (in assay [1] (setting [2]); at EGFR (L858R T790M C797S)) were no less than 8.00 and 7.52 to 7.70, respectively.
On the same counts, the results for `COC1CCN(c2nncc(Nc3cc4c(C(C)C)ccc(N5CC(CS(C)(=O)=O)C5)c4cn3)n2)CC1` [Compound 23, 8-[3-(methanesulfonylmethyl)azetidin-1-yl]-N-[3-(4-methoxypiperidin-1-yl)-1,2,4-triazin-5-yl]-5-(propan-2-yl)isoquinolin-3-amine] are 7.70 to 8.00 and no less than 7.82.
The like results for `CC(C)c1ccc(N2CC(CS(C)(=O)=O)C2)c2cnc(Nc3ccnc(N4CC[C@@](F)([C@@H](C)O)C4)n3)cc12` (single isomer, unassigned) [Compound 59, (1R)-1-[(3S)-3-fluoro-1-[4-({8-[3-(methanesulfonylmethyl)azetidin-1-yl]-5-(propan-2-yl)isoquinolin-3-yl}amino)pyrimidin-2-yl]pyrrolidin-3-yl]ethan-1-ol or (1S)-1-[(3R)-3-fluoro-1-[4-({8-[3-(methanesulfonylmethyl)azetidin-1-yl]-5-(propan-2-yl)isoquinolin-3-yl}amino)pyrimidin-2-yl]pyrrolidin-3-yl]ethan-1-ol] were, in that order, 7.70 to 8.00 and no less than 7.82.
On the same counts, the results for `C[C@H](CO)c1ccc(N2CC(CS(C)(=O)=O)C2)c2cnc(Nc3ccnc(N4CCC5(CCO5)CC4)n3)cc12` (single isomer, unassigned) [Compound 87, (2S)-2-{8-[3-(methanesulfonylmethyl)azetidin-1-yl]-3-[(2-{1-oxa-7-azaspiro[3,5]nonan-7-yl}pyrimidin-4-yl)amino]isoquinolin-5-yl}propan-1-ol or (2R)-2-{8-[3-(methanesulfonylmethyl)azetidin-1-yl]-3-[(2-{1-oxa-7-azaspiro[3.5]nonan-7-yl}pyrimidin-4-yl)amino]isoquinolin-5-yl}propan-1-ol] are 7.52 to 7.70 and no less than 7.82.
In the case of `CCS(=O)(=O)CC1CN(c2ncc(C(C)C)c3cc(Nc4ccnc(N5CC[C@@H](O)[C@@](C)(F)C5)n4)ncc23)C1` (single isomer, unassigned) [Compound 124], the results for the pIC50 (in assay [1] (setting [2]); on EGFR (L858R T790M C797S)) were no less than 8.00 and no less than 7.82, respectively.
On the same counts, the results for `CC(C)c1ccc(N2CC(CS(C)(=O)=O)C2)c2cnc(Nc3ccnc(N4C[C@H]5C[C@@H]4C[C@H]5O)n3)cc12` (single isomer, unassigned) [Compound 11, (1R,4R,5R)-2-[4-({8-[3-(methanesulfonylmethyl)azetidin-1-yl]-5-(propan-2-yl)isoquinolin-3-yl}amino)pyrimidin-2-yl]-2-azabicyclo[2.2.1]heptan-5-ol or (1S,4S,5S)-2-[4-({8-[3-(methanesulfonylmethyl)azetidin-1-yl]-5-(propan-2-yl)isoquinolin-3-yl}amino)pyrimidin-2-yl]-2-azabicyclo[2.2.1]heptan-5-ol] are 7.30 to 7.52 and no less than 7.82.
In the case of `CC(C)c1ccc(N2CC(CS(C)(=O)=O)C2)c2cnc(Nc3ccnc(N4CC5COC(C5)C4)n3)cc12` (racemic) [Compound 13, (rac)-8-[3-(methanesulfonylmethyl)azetidin-1-yl]-N-{2-[6-oxa-3-azabicyclo[3.2.1]octan-3-yl]pyrimidin-4-yl}-5-(propan-2-yl)isoquinolin-3-amine], the pIC50 was 7.30 to 7.52 in assay [1] (setting [2]) and no less than 7.82 on EGFR (L858R T790M C797S).
